Assay results reported in US12599133B2, “Use of trifluenfuronate for prevention and treatment of agricultural pest insects and mites” (SHANDONG UNITED PESTICIDE INDUSTRY CO., LTD., priority 2020, dated 2026).
Converted amounts (≈) assume the structure as drawn. Like-named read-outs stand apart in the source and are kept apart here.

What was measured:
Panonychus citri egg = test: Mite egg hatching inhibitory activity (toxicity to mite eggs), leaf-immersing method; type: in vivo
Experimental: (§1) Mite egg hatching inhibitory activity determination trial: The trial was carried out using a leaf-immersing method. A mother solution of the technical material with a mass concentration of 1 wt % was prepared with acetone for later use, and diluted with deionized water comprising 0.1 wt % Tween 80 to a series of trial concentrations. A 1.2% aqueous agar was poured into a Petri dish with a diameter of 9 cm and cooled for later use. Twenty adult mites were selected and inoculated onto pepper leaves. After 2 days, the adult mites were removed, and the number of mite eggs is counted. The leaves with eggs were immersed in the prepared agent liquid for 10 s and then taken out. The leaves were placed in a Petri dish and moisturized. Each treatment was repeated 3 times. A 0.1 wt % aqueous solution of Tween 80 was used to set up a blank control. These treatments were placed in a biochemical incubator at 24±1° C. After mite eggs of the blank control group hatched, the trial results were checked, and the hatchability rate was calculated.

Tetranychus urticae egg = test: as above; type: in vivo
Experimental: as §1

[1] = test system: Tetranychus viennensis egg; test: as above; type: in vivo
Experimental: as §1

[2] = test system: Tetranychus cinnabarinus egg; test: as above; type: in vivo
Experimental: as §1

[3] = test system: Tetranychus cinnabarinus eggs; test: Toxicity to Tetranychus cinnabarinus eggs in different areas; type: in vivo; settings: for LC50: Tetranychus cinnabarinus
Experimental: as §1
The procedure was the same as above except that the assay for toxicity to Tetranychus cinnabarinus eggs was carried out in different areas.

[4] = test system: Tetranychus urticae Adult female mite; test: Oviposition inhibitory activity determination trial; type: in vivo; settings: 144 h, read-out: 6-day oviposition inhibition rate; for inhibition at 1 µg/mL: trial concentration 1 mg/L; for inhibition at 5 µg/mL: trial concentration 5 mg/L
Experimental: (§2) Oviposition inhibitory activity determination trial: A mother solution of the technical material with a mass concentration of 1 wt % was prepared with acetone for later use, and diluted with deionized water comprising 0.1 wt % Tween 80 to a series of trial concentrations. Fresh leaves of cowpea seedlings were selected and cut into round leaf disks with a diameter of about 5.0 cm. The leaf disks were placed in a plastic Petri dish with filter paper and degreased cotton spread in it. 5 mg/L and 10 mg/L treatment agents were applied to the back of the leaves with cotton swabs. An aqueous solution with the same solvent proportion was used as a control agent. After the agent liquid was naturally evaporated under indoor conditions, about 20 female adult mites aged 3-5 days were inoculated onto each leaf. Each treatment was repeated 5 times, about 100 mites were treated The mites were kept in the same conditions, and observed under a binocular dissecting microscope every 24 h over 6 consecutive days, and the number of laid eggs was recorded for each treatment. After the trial ended, the oviposition inhibition rate was calculated for each treatment.

[5] = test system: Tetranychus viennensis Adult female mite; test: as above; type: in vivo; settings: 144 h, read-out: 6-day oviposition inhibition rate; for inhibition at 1 µg/mL: trial concentration 1 mg/L; for inhibition at 5 µg/mL: trial concentration 5 mg/L
Experimental: as §2

[6] = test system: Panonychus citri Adult female mite; test: as above; type: in vivo; settings: 144 h, read-out: 6-day oviposition inhibition rate; for inhibition at 1 µg/mL: trial concentration 1 mg/L; for inhibition at 5 µg/mL: trial concentration 5 mg/L
Experimental: as §2

[7] = test system: Tetranychus cinnabarinus Adult female mite; test: as above; type: in vivo; settings: 144 h, read-out: 6-day oviposition inhibition rate; for inhibition at 1 µg/mL: trial concentration 1 mg/L; for inhibition at 5 µg/mL: trial concentration 5 mg/L
Experimental: as §2

Diamondback moth egg = test: Egg hatchability inhibition, leaf-immersing method; type: in vivo, Plutella xylostella (Linnaeus); settings: Plutella xylostella, read-out: Hatchability inhibition
Experimental: (§3) Diamondback moth egg: The trial was carried out using a leaf-immersing method. A mother solution of the technical material with a mass concentration of 1 wt % was prepared with acetone, and diluted with deionized water comprising 0.1 wt % Tween 80 to trial concentrations for later use. 1.2% agar was poured into a Petri dish with a diameter of 9 cm and cooled for later use. Two-leaf one-core radish seedlings were placed in the Petri dish when adult diamondback moths were at the great oviposition phase. After 1 day, the […] seedlings were taken out. Radish seedlings with 20-30 eggs in it were selected and immersed in the agent liquid for 10 s and then taken out, and the radish seedlings were placed in a Petri dish and moisturized. Each treatment was repeated 3 times. A 0.1 wt % aqueous solution of Tween 80 was used to set up a blank control, and the blank control was placed in an insect-raising chamber at 25° C. After larvae of the blank control group hatched, the trial results were checked, and the hatchability was calculated.

Maize armyworm egg = test: Egg hatchability inhibition, leaf-immersing method; type: in vivo, Mythimna separate (Walker); settings: read-out: Hatchability inhibition
Experimental: as §3, with “Maize armyworm egg: The” for “Diamondback moth egg: The”, “Two-leaf one-core corn seedlings were” for “Two-leaf one-core radish seedlings were”, “when adult maize armyworms were at” for “when adult diamondback moths were at”, “taken out. Corn seedlings with” for “taken out. Radish seedlings with”, “and the corn seedlings were” for “and the radish seedlings were”

Bradysia odoriphaga egg = test: Egg toxicity, agent liquid quantitative dropwise addition method; type: in vivo; settings: 120 h, read-out: Hatchability inhibition
Experimental: Bradysia odoriphaga egg: The trial was carried out by using an agent liquid quantitative dropwise addition method. A mother solution of the technical material with a mass concentration of 1 wt % was prepared with acetone for later use, and a series of trial concentrations were prepared using a 0.1 wt % aqueous solution of Tween 80. Bradysia odoriphaga eggs aged 2 days were picked up. Each treatment unit comprised 20 eggs. The eggs were placed in a Petri dish with a diameter of 9 cm with filter paper spread in it. 600 μL of agent liquid was dropwise added with a pipette onto the eggs, and 600 μL of agent liquid onto the filter paper. Each treatment was repeated 3 times. A 0.1 wt % aqueous solution of Tween 80 was used to set up a blank control, and the blank control was placed in a biochemical incubator at 24±1° C. after treatment. Five days after application, the trial results were checked.

Bemisia tabaci egg = test: Egg hatching inhibition, potting spray method; type: in vivo; settings: read-out: Hatchability inhibition
Experimental: Bemisia tabaci egg: A potting spray method was adopted. A mother solution of the technical material with a mass concentration of 1 wt % was prepared with acetone for later use, and a series of trial concentrations were prepared using a 0.1 wt % aqueous solution of Tween 80. Potted pepper plants growing at the same pace were selected. Every 6 potted pepper plants were counted as a treatment unit and placed in an insect-raising cage. About 500 silverleaf whiteflies were inoculated into each insect-raising cage and normally kept for 2 days, and then the adults were removed. After the agent was prepared, it was used to spray the pepper plants. After the spraying, the plants were placed in the insect-raising cages. A 0.1 wt % aqueous solution of Tween 80 was used to set up a blank control, and the blank control was placed in an insect-raising chamber at 25° C. After […] nymphs of the blank control group hatched, the number of nymphs in each treatment unit was counted, and the hatching inhibition rate was calculated.

Row | SMILES | LC50 (Panonychus citri egg) [µg/mL] | LC90 (Panonychus citri egg) [µg/mL] | LC50 (Tetranychus urticae egg) [µg/mL] | LC90 (Tetranychus urticae egg) [µg/mL] | LC50 [1] [µg/mL] | LC90 [1] [µg/mL] | LC50 [2] [µg/mL] | LC90 [2] [µg/mL] | LC50 ([3]; area Fangcun, Taian) [µg/mL] | LC50 ([3]; area Jiyang, Jinan) [µg/mL] | LC50 ([3]; area Qihe, Dezhou) [µg/mL] | LC50 ([3]; area Shouguang, Weifang) [µg/mL] | LC90 ([3]; area Fangcun, Taian) [µg/mL] | LC90 ([3]; area Jiyang, Jinan) [µg/mL] | LC90 ([3]; area Qihe, Dezhou) [µg/mL] | LC90 ([3]; area Shouguang, Weifang) [µg/mL] | inhibition at 1 µg/mL [4] [%] | inhibition at 5 µg/mL [4] [%] | inhibition at 1 µg/mL [5] [%] | inhibition at 5 µg/mL [5] [%] | other results
1 | CCOc1cc(C(C)(C)C)ccc1C1COC(c2c(F)cccc2F)=N1 (stereo not shown) [Etoxazole] | 21.6 (≈ 60 µM) | 123.59 (≈ 344 µM) | 17.8 (≈ 49.5 µM) | 135.01 (≈ 376 µM) | 17.6 (≈ 49 µM) | 88.51 (≈ 246 µM) | 18.5 (≈ 51.6 µM) | 124.23 (≈ 346 µM) | 15.4 (≈ 42.8 µM) | 5.37 (≈ 14.9 µM) | 26 (≈ 72.3 µM) | 7.21 (≈ 20.1 µM) | 168.95 (≈ 470 µM) | 62.95 (≈ 175 µM) | 162.82 (≈ 453 µM) | 69.57 (≈ 194 µM) | 35.9 | 69.2 | 27 | 60.8 | inhibition at 1 µg/mL [6]: 37.6%; inhibition at 5 µg/mL [6]: 65.4%; inhibition at 1 µg/mL [7]: 35.7%; inhibition at 5 µg/mL [7]: 66.8%
2 | O=C(NC(=O)c1c(F)cccc1F)Nc1cc(Cl)c(OC(F)(F)C(F)C(F)(F)F)cc1Cl (stereo not shown) [Lufenuron] |  |  |  |  |  |  |  |  |  |  |  |  |  |  |  |  |  |  |  |  | inhibition at 5 µg/mL (Diamondback moth egg; Diamondback moth egg, trial concentration 5 mg/L): 59.1%; inhibition at 20 µg/mL (Diamondback moth egg; Diamondback moth egg, trial concentration 20 mg/L): 75%; inhibition at 5 µg/mL (Maize armyworm egg; Maize armyworm egg, trial concentration 5 mg/L): 22.6%; inhibition at 20 µg/mL (Maize armyworm egg; Maize armyworm egg, trial concentration 20 mg/L): 58.4%
3 | CC(COc1ccc(Oc2ccccc2)cc1)Oc1ccccn1 (stereo not shown) [Pyriproxyfen] |  |  |  |  |  |  |  |  |  |  |  |  |  |  |  |  |  |  |  |  | inhibition at 50 µg/mL (Bradysia odoriphaga egg; Bradysia odoriphaga egg, trial concentration 50 mg/L, five days after application): 42.4%; inhibition at 100 µg/mL (Bradysia odoriphaga egg; Bradysia odoriphaga egg, trial concentration 100 mg/L, five days after application): 61.6%; inhibition at 5 µg/mL (Bemisia tabaci egg; Bemisia tabaci egg, trial concentration 5 mg/L): 43.7%; inhibition at 20 µg/mL (Bemisia tabaci egg; Bemisia tabaci egg, trial concentration 20 mg/L): 86.8%
4 | COc1ccccc1C1OC(=O)CC1C(=O)OCCC(F)=C(F)F (stereo not shown) [Trifluenfuronate, trifluenfuronate] | 3.28 (≈ 9.53 µM) | 17.97 (≈ 52.2 µM) | 3.69 (≈ 10.7 µM) | 18.01 (≈ 52.3 µM) | 3.66 (≈ 10.6 µM) | 12.44 (≈ 36.1 µM) | 4.12 (≈ 12 µM) | 20.77 (≈ 60.3 µM) | 3.89 (≈ 11.3 µM) | 3.92 (≈ 11.4 µM) | 3.79 (≈ 11 µM) | 4.11 (≈ 11.9 µM) | 21.95 (≈ 63.8 µM) | 20.94 (≈ 60.8 µM) | 15.62 (≈ 45.4 µM) | 19.37 (≈ 56.3 µM) | 50.4 | 77 | 48.7 | 75.3 | inhibition at 5 µg/mL (Diamondback moth egg): 73.6%; inhibition at 20 µg/mL (Diamondback moth egg): 88.3%; inhibition at 5 µg/mL (Bradysia odoriphaga egg; Bradysia odoriphaga): 81.3%; inhibition at 20 µg/mL (Bradysia odoriphaga egg; Bradysia odoriphaga): 95.3%; inhibition at 5 µg/mL (Maize armyworm egg): 83.7%; inhibition at 20 µg/mL (Maize armyworm egg): 92.3%; inhibition at 1 µg/mL [6]: 51%; inhibition at 5 µg/mL [6]: 77.8%; inhibition at 1 µg/mL [7]: 47.3%; inhibition at 5 µg/mL [7]: 77.7%; inhibition at 5 µg/mL (Bemisia tabaci egg; Bemisia tabaci): 83.3%; inhibition at 20 µg/mL (Bemisia tabaci egg; Bemisia tabaci): 98.7%
